Counter-ions that a name gives are not always drawn. Like-named read-outs stand apart in the source and are kept apart here.
Experiments:
[1] = tested on: Monoiodoacetate (MIA)-Induced Osteoarthritis Model; details: rats, 3 weeks after MIA administration, inflammation already recovered; cited from earlier work
[2] = tested on: Bradykinin-Induced Knee Pain Model
Method: The induction and evaluation of the present model was basically carried out in accordance with Ann Rheum Dis, 52, 817-822 (1993). A diluted solution, which was diluted with a solvent so as to obtain a vehicle and the compound A having a predetermined concentration, was orally administered to male SD rats (6-7 week old, obtained by Charles River Laboratories Japan, Inc.). This test was carried out for 10 rats of each group. The solvent herein used was distilled water. […] The inhibition rate of the drug to be tested was calculated by setting the difference in weight of a vehicle-administered group to an inhibition rate of 0% and the difference in weight of a normal group to an inhibition rate of 100%. Significant difference testing was carried out by between-group comparison between the vehicle group and the drug group using a Dunnett's t-test after ANOVA testing.

[3] = tested on: Monoiodoacetate (MIA)-Induced Osteoarthritis Model; test: Analgesic action in monoiodoacetate (MIA)-induced osteoarthritis model (difference in hindlimb weight); assay type: in vivo, rat; details: male SD rats, 3 weeks after MIA, oral, compound A 30 mg/kg, 1 hour after administration
Method: The present disease model was produced based on the description of Toxicol Pathol 31 (6), 619-624 (2003). […] MIA was dissolved in physiological saline and 50 μl of the resulting solution was administered with a needle (26 gauge, 0.5 inch). […] The solvent herein used was distilled water. One hour after administration, the difference in weight between the left and right hindlimbs was measured using an incapacitance tester (manufactured by Linton Instrumentation, Norfolk, UK).

[4] = tested on: Adjuvant-Derived Arthritis Rat; test: Inhibitory effect on the difference in hindlimb weight of adjuvant-derived arthritis rat; assay type: in vivo
Method: In this test, female Lewis rats (7-8 weeks old) were used. 50 μL of H37 Ra (manufactured by DIFCO Co.), Mycobacterium tuberculosis suspended with liquid paraffin to a concentration of 10 mg/mL was subcutaneously administered around the right hind footpad. […] The number of rats of each group was 8. The solvent herein used was distilled water. When taking into consideration the period for obtaining a maximum in-blood-concentration, at one hour after administration, the difference in weight between the left and right hindlimbs was measured using an incapacitance tester (manufactured by Linton Instrumentation, Norfolk, UK).

[5] = tested on: Bradykinin-Induced Knee Pain Model; details: as a joint injection; cited from earlier work
[6] = compound A 10 mg/kg vs duloxetine 30 mg/kg, oral

COc1ccc2c(c1)c(CC(=O)O)c(C)n2C(=O)c1ccc(Cl)cc1 [indomethacin]
effectiveness of NSAIDs on pain in this stage of the MIA model [1]: not effective

CNCC[C@H](Oc1cccc2ccccc12)c1cccs1 [duloxetine, (S)—N-methyl-γ-(1-naphthalenyloxy)-2-thiophenepropanamine]
improvement effect (inhibition rate) on pain behavior score ([2]; rat, in vivo, po, 30 mg/kg): 56%

C1=Cc2cccc(OCC3CNCCO3)c2C1 (single isomer, unassigned; (+)) [compound A hydrobromate, (+)-2-[(inden-7-yloxy)methyl]morpholine]
improvement effect (inhibition rate) on the difference in hindlimb weight [3]: 54% | improvement effect (inhibition rate) on the difference in hindlimb weight ([4]; female Lewis rats, day after adjuvant, oral, 10 mg/kg, 1 hour after administration): 65%

C1=Cc2cccc(OCC3CNCCO3)c2C1 (single isomer, unassigned; (+)) [compound A, (+)-2-[(inden-7-yloxy)methyl]morpholine]
improvement effect relative to duloxetine [4, 6]: about 3 fold | improvement effect relative to duloxetine [2, 6]: ~3 fold

hyaluronan
effectiveness in the bradykinin model [5]: effective

C1=Cc2cccc(OCC3CNCCO3)c2C1 (single isomer, unassigned; (+)) [compound A benzenesulfonate, (+)-2-[(inden-7-yloxy)methyl]morpholine]
improvement effect (inhibition rate) on pain behavior score ([2]; male SD rats, oral, 10 mg/kg, bradykinin injected 1 hour after administration): 55%

O=C(O)Cc1ccccc1Nc1c(Cl)cccc1Cl [diclofenac]
effectiveness of NSAIDs on pain in this stage of the MIA model [1]: not effective

CNCC[C@H](Oc1cccc2ccccc12)c1cccs1 [duloxetine hydrochloride, (S)—N-methyl-γ-(1-naphthalenyloxy)-2-thiophenepropanamine]
improvement effect (inhibition rate) on the difference in hindlimb weight ([4]; rat, in vivo, po, 30 mg/kg): 63%
